Like-named read-outs stand apart in the source and are kept apart here.
Tested on: luciferase light signal from pIB29EL (yopE-luxAB)
Experiment: microbe, parasite or virus in culture
Type: cell-based, Yersinia pseudotuberculosis
Settings: for inhibition at 5 µM: read-out: Inhibition (%) of the luciferase light signal, 5 μM; for inhibition at 10 µM: read-out: Inhibition (%) of the luciferase light signal, 10 μM; for inhibition at 20 µM: read-out: Inhibition (%) of the luciferase light signal, 20 μM; for inhibition at 50 µM: read-out: Inhibition (%) of the luciferase light signal, 50 μM; for inhibition at 100 µM: read-out: Inhibition (%) of the luciferase light signal, 100 μM; for IC50: read-out: IC50 (concentration resulting in 50% reduction of luciferase light emission)
[1] = 10 μM, strain pIB29EL, Table 2C
[2] = 20 μM, strain pIB29EL, Table 2C
[3] = 50 μM, strain pIB29EL, Table 2C
[4] = 100 μM, strain pIB29EL, Table 2C
[5] = Yersinia pseudotuberculosis, strain pIB29EL, Table 2C

Compound: CC(=O)Oc1c(Br)cc(Br)cc1C(=O)Nc1ccccc1F [Compound 19]
- Inhibition (%) of the luciferase light signal (10 μM, pIB29EL, Table 2A): 0%
- Inhibition (%) of the luciferase light signal (20 μM, pIB29EL, Table 2A): 0%
- Inhibition (%) of the luciferase light signal (50 μM, pIB29EL, Table 2A): 45%
- Inhibition (%) of the luciferase light signal (100 μM, pIB29EL, Table 2A): 70%

Compound: O=C(Nc1cccc(Cl)c1)c1cc(Cl)ccc1NS(=O)(=O)c1cccc2nsnc12 [Compound 57]
- Inhibition (%) of the luciferase light signal (5 μM, strain pIB29EL, Table 2C): 0%
- Inhibition (%) of the luciferase light signal [1]: 7%
- Inhibition (%) of the luciferase light signal [2]: 26%
- Inhibition (%) of the luciferase light signal [3]: 49%
- Inhibition (%) of the luciferase light signal [4]: 55%

Compound: O=C(Nc1ccc(Cl)cc1)c1ccccc1O [Compound 24]
- inhibition at 5 µM [5]: 7%
- inhibition at 10 µM [5]: 30%
- inhibition at 20 µM [5]: 73%
- inhibition at 50 µM [5]: 90%
- inhibition at 100 µM [5]: 88%

Compound: O=C(Nc1ccc(Cl)cc1)c1cc(I)ccc1O [Compound 23]
- Inhibition (%) of the luciferase light signal (5 μM, strain pIB29EL, Table 2C): 70%
- Inhibition (%) of the luciferase light signal [1]: 75%
- Inhibition (%) of the luciferase light signal [2]: 83%
- Inhibition (%) of the luciferase light signal [3]: 80%
- Inhibition (%) of the luciferase light signal [4]: 78%

Compound: CC1(C)S[C@@H]2[C@H](NC(=O)C(C(=O)O)c3ccccc3)C(=O)N2[C@H]1C(=O)O (stereo partly drawn) [Carbenicillin, reference compound]
- IC50 (Yersinia pseudotuberculosis): 15 µM
- Inhibition of light-emission (in words) (known antibiotics, pIB29EL): dose-dependent inhibition of light-emission

Compound: Polymixin B [reference compound]
- Inhibition of light-emission (in words): dose-dependent inhibition of light-emission
- IC50: 0.15 µM

Compound: O=C(Nc1ccc(Cl)c(Cl)c1)c1ccccc1NS(=O)(=O)c1cccc2nsnc12 [Compound 59]
- Inhibition (%) of the luciferase light signal (5 μM, strain pIB29EL, Table 2C): 0%
- Inhibition (%) of the luciferase light signal [1]: 0%
- Inhibition (%) of the luciferase light signal [2]: 0%
- Inhibition (%) of the luciferase light signal [3]: 7%
- Inhibition (%) of the luciferase light signal [4]: 10%

Compound: CCn1cc(C(=O)O)c(=O)c2ccc(C)nc21 [Nalidixic acid, reference compound]
- IC50 (Yersinia pseudotuberculosis): 15 µM
- Inhibition of light-emission (in words) (known antibiotics, pIB29EL): dose-dependent inhibition of light-emission

Compound: O=C(N/N=C/c1c(O)ccc2ccccc12)c1ccccc1 [Compound 9]
- Inhibition (%) of the luciferase light signal (10 μM, pIB29EL, Table 2A): 9%
- Inhibition (%) of the luciferase light signal (20 μM, pIB29EL, Table 2A): 21%
- Inhibition (%) of the luciferase light signal (50 μM, pIB29EL, Table 2A): 41%
- Inhibition (%) of the luciferase light signal (100 μM, pIB29EL, Table 2A): 49%

Compound: CC(=O)Oc1c(Cl)cc(Cl)c(Cl)c1C(=O)Nc1ccc(SC(F)(F)F)cc1 [Compound 47]
- Inhibition (%) of the luciferase light signal (5 μM, strain pIB29EL, Table 2C): 55%
- Inhibition (%) of the luciferase light signal [1]: 61%
- Inhibition (%) of the luciferase light signal [2]: 73%
- Inhibition (%) of the luciferase light signal [3]: 90%
- Inhibition (%) of the luciferase light signal [4]: 90%

Compound: O=C(Nc1ccccc1F)c1cc(Br)cc(Br)c1O [Compound 27]
- inhibition at 5 µM [5]: 9%
- inhibition at 10 µM [5]: 3%
- inhibition at 20 µM [5]: 1%
- inhibition at 50 µM [5]: 13%
- inhibition at 100 µM [5]: 20%

Compound: CC(=O)Oc1ccc(I)cc1C(=O)Nc1ccc(Cl)cc1 [Compound 16]
- Inhibition (%) of the luciferase light signal (5 μM (first of two columns headed 5), pIB29EL, Table 2B): 65%
- Inhibition (%) of the luciferase light signal (5 μM (second of two columns headed 5), pIB29EL, Table 2B): 97%
- Inhibition (%) of the luciferase light signal (10 μM, pIB29EL, Table 2B): 98%
- Inhibition (%) of the luciferase light signal (20 μM, pIB29EL, Table 2B): 97%

Compound: O=C(N/N=C/c1ccc(O)cc1O)c1cc2ccccc2cc1O [Compound 13]
- Inhibition (%) of the luciferase light signal (10 μM, pIB29EL, Table 2A): 26%
- Inhibition (%) of the luciferase light signal (20 μM, pIB29EL, Table 2A): 47%
- Inhibition (%) of the luciferase light signal (50 μM, pIB29EL, Table 2A): 69%
- Inhibition (%) of the luciferase light signal (100 μM, pIB29EL, Table 2A): 73%

Compound: O=C(N/N=C/c1cc(Br)cc(Br)c1O)c1cccnc1 [Compound 7]
- Inhibition (%) of the luciferase light signal (10 μM, pIB29EL, Table 2A): 25%
- Inhibition (%) of the luciferase light signal (20 μM, pIB29EL, Table 2A): 20%
- Inhibition (%) of the luciferase light signal (50 μM, pIB29EL, Table 2A): 68%
- Inhibition (%) of the luciferase light signal (100 μM, pIB29EL, Table 2A): 93%

Compound: O=C(N/N=C/c1cc(O)ccc1O)c1ccco1 [Compound 12]
- Inhibition (%) of the luciferase light signal (10 μM, pIB29EL, Table 2A): 12%
- Inhibition (%) of the luciferase light signal (20 μM, pIB29EL, Table 2A): 16%
- Inhibition (%) of the luciferase light signal (50 μM, pIB29EL, Table 2A): 41%
- Inhibition (%) of the luciferase light signal (100 μM, pIB29EL, Table 2A): 65%

Compound: CC(=O)Oc1c(I)cc(I)cc1C(=O)Nc1ccc(SC(F)(F)F)cc1 [Compound 33]
- inhibition at 5 µM [5]: 71%
- inhibition at 10 µM [5]: 70%
- inhibition at 20 µM [5]: 68%
- inhibition at 50 µM [5]: 69%
- inhibition at 100 µM [5]: 71%

Compound: CC(=O)Oc1ccccc1C(=O)Nc1ccc(Cl)cc1 [Compound 60]
- Inhibition (%) of the luciferase light signal (5 μM, strain pIB29EL, Table 2C): 0%
- Inhibition (%) of the luciferase light signal [1]: 21%
- Inhibition (%) of the luciferase light signal [2]: 65%
- Inhibition (%) of the luciferase light signal [3]: 89%
- Inhibition (%) of the luciferase light signal [4]: 89%

Compound: CC(=O)Oc1c(I)cc(I)cc1C(=O)Nc1ccc(F)cc1 [Compound 17]
- Inhibition (%) of the luciferase light signal (10 μM, pIB29EL, Table 2A): 36%
- Inhibition (%) of the luciferase light signal (20 μM, pIB29EL, Table 2A): 42%
- Inhibition (%) of the luciferase light signal (50 μM, pIB29EL, Table 2A): 89%
- Inhibition (%) of the luciferase light signal (100 μM, pIB29EL, Table 2A): 90%

Compound: O=C(Nc1cc(Cl)ccc1F)c1cc(I)cc(I)c1O [Compound 48]
- Inhibition (%) of the luciferase light signal (5 μM, strain pIB29EL, Table 2C): 36%
- Inhibition (%) of the luciferase light signal [1]: 75%
- Inhibition (%) of the luciferase light signal [2]: 88%
- Inhibition (%) of the luciferase light signal [3]: 89%
- Inhibition (%) of the luciferase light signal [4]: 88%

Compound: O=C(Nc1ccc(SC(F)(F)F)cc1)c1cc2cc(Br)ccc2c(Br)c1O [Compound 53]
- Inhibition (%) of the luciferase light signal (5 μM, strain pIB29EL, Table 2C): 11%
- Inhibition (%) of the luciferase light signal [1]: 38%
- Inhibition (%) of the luciferase light signal [2]: 43%
- Inhibition (%) of the luciferase light signal [3]: 58%
- Inhibition (%) of the luciferase light signal [4]: 68%

Compound: CC(=O)Oc1ccc(I)cc1C(=O)Nc1ccc(Cl)cc1 [Compound 62]
- Inhibition (%) of the luciferase light signal (5 μM, strain pIB29EL, Table 2C): 95%
- Inhibition (%) of the luciferase light signal [1]: 92%
- Inhibition (%) of the luciferase light signal [2]: 91%
- Inhibition (%) of the luciferase light signal [3]: 91%
- Inhibition (%) of the luciferase light signal [4]: 90%

Compound: CC(C)(C)c1ccc(NC(=O)c2c(O)c(Cl)cc(Cl)c2Cl)cc1 [Compound 32]
- inhibition at 5 µM [5]: 14%
- inhibition at 10 µM [5]: 23%
- inhibition at 20 µM [5]: 37%
- inhibition at 50 µM [5]: 42%
- inhibition at 100 µM [5]: 46%

Compound: O=C(Nc1ccc(Cl)cc1)c1ccccc1NS(=O)(=O)c1cccc2nsnc12 [Compound 58]
- Inhibition (%) of the luciferase light signal (5 μM, strain pIB29EL, Table 2C): 4%
- Inhibition (%) of the luciferase light signal [1]: 5%
- Inhibition (%) of the luciferase light signal [2]: 10%
- Inhibition (%) of the luciferase light signal [3]: 11%
- Inhibition (%) of the luciferase light signal [4]: 15%

Compound: O=C(Nc1ccc(SC(F)(F)F)cc1)c1cccc(Cl)c1O [Compound 54]
- Inhibition (%) of the luciferase light signal (5 μM, strain pIB29EL, Table 2C): 41%
- Inhibition (%) of the luciferase light signal [1]: 63%
- Inhibition (%) of the luciferase light signal [2]: 86%
- Inhibition (%) of the luciferase light signal [3]: 89%
- Inhibition (%) of the luciferase light signal [4]: 87%

Compound: CC(=O)Oc1c(I)cc(I)cc1C(=O)Nc1ccccc1 [Compound 18]
- Inhibition (%) of the luciferase light signal (10 μM, pIB29EL, Table 2A): 11%
- Inhibition (%) of the luciferase light signal (20 μM, pIB29EL, Table 2A): 51%
- Inhibition (%) of the luciferase light signal (50 μM, pIB29EL, Table 2A): 70%
- Inhibition (%) of the luciferase light signal (100 μM, pIB29EL, Table 2A): 62%

Compound: [H]/N=C(/N)N[C@H]1[C@H](O)[C@@H](O)[C@H](O[C@@H]2O[C@@H](C)[C@](O)(C=O)[C@H]2O[C@@H]2O[C@@H](CO)[C@H](O)[C@@H](O)[C@@H]2NC)[C@@H](N/C(N)=N\[H])[C@@H]1O [Streptomycin, reference compound]
- IC50 (Yersinia pseudotuberculosis): 4 µM
- Inhibition of light-emission (in words) (known antibiotics, pIB29EL): dose-dependent inhibition of light-emission

Compound: CC(C)(C)c1ccc(NC(=O)c2cc(I)cc(I)c2O)cc1 [Compound 29]
- inhibition at 5 µM [5]: 19%
- inhibition at 10 µM [5]: 18%
- inhibition at 20 µM [5]: 21%
- inhibition at 50 µM [5]: 30%
- inhibition at 100 µM [5]: 28%

Compound: O=C(Nc1ccc([N+](=O)[O-])cc1Cl)c1cc(Cl)ccc1O [Compound 55]
- Inhibition (%) of the luciferase light signal (5 μM, strain pIB29EL, Table 2C): 85%
- Inhibition (%) of the luciferase light signal [1]: 96%
- Inhibition (%) of the luciferase light signal [2]: 96%
- Inhibition (%) of the luciferase light signal [3]: 94%
- Inhibition (%) of the luciferase light signal [4]: 94%

Compound: C=CCc1cccc(/C=N/NC(=O)c2ccc([N+](=O)[O-])cc2)c1O [Compound 10]
- Inhibition (%) of the luciferase light signal (10 μM, pIB29EL, Table 2A): 30%
- Inhibition (%) of the luciferase light signal (20 μM, pIB29EL, Table 2A): 49%
- Inhibition (%) of the luciferase light signal (50 μM, pIB29EL, Table 2A): 56%
- Inhibition (%) of the luciferase light signal (100 μM, pIB29EL, Table 2A): 57%

Compound: CCCCCCc1cc(/C=N/NC(=O)c2ccc([N+](=O)[O-])cc2)c(O)cc1O [Compound 11]
- Inhibition (%) of the luciferase light signal (10 μM, pIB29EL, Table 2A): 30%
- Inhibition (%) of the luciferase light signal (20 μM, pIB29EL, Table 2A): 42%
- Inhibition (%) of the luciferase light signal (50 μM, pIB29EL, Table 2A): 69%
- Inhibition (%) of the luciferase light signal (100 μM, pIB29EL, Table 2A): 80%

Compound: O=C(COc1ccccc1)N/N=C/c1c(O)ccc2ccccc12 [Compound 20]
- inhibition at 10 µM [5]: 2%
- inhibition at 20 µM [5]: 5%
- inhibition at 50 µM [5]: 19%
- inhibition at 100 µM [5]: 48%

Compound: O=C(Nc1ccc(SC(F)(F)F)cc1)c1cc(I)cc(I)c1O [Compound 26]
- inhibition at 5 µM [5]: 15%
- inhibition at 10 µM [5]: 15%
- inhibition at 20 µM [5]: 41%
- inhibition at 50 µM [5]: 84%
- inhibition at 100 µM [5]: 93%

Compound: CC(=O)Oc1ccc(I)cc1C(=O)Nc1ccc(Br)cc1 [Compound 51]
- Inhibition (%) of the luciferase light signal (5 μM, strain pIB29EL, Table 2C): 91%
- Inhibition (%) of the luciferase light signal [1]: 87%
- Inhibition (%) of the luciferase light signal [2]: 89%
- Inhibition (%) of the luciferase light signal [3]: 87%
- Inhibition (%) of the luciferase light signal [4]: 85%

Compound: CC(=O)Oc1c(I)cc(I)cc1C(=O)Nc1cc(Cl)ccc1F [Compound 49]
- Inhibition (%) of the luciferase light signal (5 μM, strain pIB29EL, Table 2C): 24%
- Inhibition (%) of the luciferase light signal [1]: 34%
- Inhibition (%) of the luciferase light signal [2]: 63%
- Inhibition (%) of the luciferase light signal [3]: 89%
- Inhibition (%) of the luciferase light signal [4]: 88%

Source: patent publication US7351861B2 (priority 2002, dated 2008)
